In ChEMBL document CHEMBL5724558, “Image-based profiling of drug vulnerabilities in CRC organoids” (2024):
Values joined by “and” are separate entries in the source; they are usually repeats but may differ in a detail not shown here. Equal values may be shown once.

Assays:
Format in all cases: functional, Homo sapiens
Design in all cases: dose or concentration left out as unconfirmed
Colon cancer organoid [1] = assay: (§1) Image-based profiling of donated chemical probes and chemogenomic kinase set in O06 CRC organoid. Image analysis is performed on the sum area metric, and the data were normalized to the DMSO control. After imaging the organoid viability is measured using the OneGloEX Luciferase Assay System. The normalized viability data and sum area are reported.
Colon cancer organoid [2] = assay: as §1, with “O09” for “O06”
Colon cancer organoid [3] = assay: as §1, with “O21” for “O06”

Row | SMILES | Cell Viability (Colon cancer organoid [1]; Replication number 1) | Cell Viability (Colon cancer organoid [1]; Replication number 2) | Cell Viability (Colon cancer organoid [2]; Replication number 1) | Cell Viability (Colon cancer organoid [2]; Replication number 2) | Cell Viability (Colon cancer organoid [3]; Replication number 1) | Cell Viability (Colon cancer organoid [3]; Replication number 2)
1 | Cc1c(Nc2ccc(S(=O)(=O)N3CCN(C)CC3)cc2F)nc2ccc(-c3cnn(C4CC4)c3)cn2c1=O | 155.776% and 116.215% | 128.897% and 94.1583% | 191.117% and 102.241% | 170.931% and 98.6379% | 111.388% and 118.746% | 91.8423% and 96.6587%
2 | Nc1ncnc2c1ccn2[C@@H]1O[C@H]([C@H](O)c2ccccc2)[C@@H](O)[C@H]1O | 27.0632% and 78.2819% |  | 67.0274% and 58.6553% | 77.7398% and 60.4371% | 74.1764% and 78.772% | 70.798% and 78.401%
3 | CCS(=O)(=O)c1cc2cc(C[C@](O)(CC(C)(C)c3ccc(F)cc3C(N)=O)C(F)(F)F)[nH]c2cn1 [BI 653048] | 90.5623% and 97.4239% | 82.9692% and 113.237% | 139.667% and 102.973% | 122.797% and 92.0044% | 95.8907% and 94.89% | 87.1647% and 83.1633%
4 | COc1cc(Nc2nc(C)cc(-c3cnn4nc(OC)ccc34)n2)cc(C(F)(F)F)c1 | 101.755% and 109.64% | 94.2101% and 91.9205% | 104.965% and 91.5636% | 103.466% and 113.093% | 100.392% and 88.9748% | 126.257% and 100.876%
5 | Cl.Cl.c1ccc([C@@H]2C[C@H]2NC2CCNCC2)cc1 | 175.971% and 140.859% | 170.528% and 119.251% | 165.336% and 102.473% | 183.388% and 100.348% | 139.321% and 134.03% | 128.492% and 116.527%
6 | COc1ccccc1S(=O)(=O)Nc1ccc2c(c1)CN(C)C(=O)N2 | 152.206% and 125.879% | 155.447% and 126.899% | 91.3379% and 107.573% | 93.4533% and 109.471% | 64.6421% and 66.4272% | 105.73% and 125.656%
7 | CC(C)Oc1ccc(-c2nn([C@@H](C)c3oc4ccc(F)cc4c(=O)c3-c3cccc(F)c3)c3ncnc(N)c23)cc1F [UMBRALISIB] | 88.4125% and 133.76% | 91.2943% and 112.494% | 196.172% and 129.157% | 74.9501% and 109.33% | 111.232% and 144.39% | 124.887% and 154.3%
8 | COc1cc(C(=O)O)ncc1C#Cc1ccccc1NS(=O)(=O)c1cccc2c(N(C)C)ccnc12 [MSC-0516] | 100.098% and 102.024% | 96.9075% and 85.7761% | 106.133% and 95.2857% | 130.736% and 112.411% | 88.3697% and 90.0327% | 92.8274% and 92.794%
9 | COCC(=O)NC/C=C/c1ccc2ncnc(Nc3ccc(Oc4ccc(C)nc4)c(C)c3)c2c1 [CP-724714] | 34.9461% and 62.9851% | 41.6567% and 67.0437% | 68.0715% and 78.0427% | 150.035% and 112.57% | 88.8144% and 89.7561% | 117.053% and 106.513%
10 | C=CC(=O)Nc1ccc2[nH]c(=O)n(C3CCN(Cc4ccc(-c5ccc6c(c5)NC(=O)CO6)cc4)CC3)c2c1 [RL2578] | 82.8871% and 90.6073% | 145.126% and 114.128% | 79.7893% and 107.853% | 131.51% and 111.42% | 100.847% and 118.952% | 88.0648% and 119.816%
11 | CCC(=O)N1CCN(c2ccc(-n3c(=O)ccc4cnc5ccc(-c6cnc7ccccc7c6)cc5c43)cc2C(F)(F)F)CC1 [TORIN1] | 3.399% and 11.5065% |  | 18.1039% and 19.199% | 16.4682% and 14.0105% | 35.688% and 65.784% | 42.752% and 81.756%
12 | CN(C)C(=O)N1CC[C@H](NC2=Nc3cc(F)ccc3N(CC(F)F)c3ccc(Cl)cc32)C1 | 112.42% and 113.793% | 60.2365% and 60.6343% | 91.7013% and 91.0686% | 138.489% and 113.836% | 101.162% and 105.976% | 96.6139% and 109.943%
13 | CNCc1ccccc1-c1csc([C@@H](C)Nc2nc(C)nc3cc(OC)c(OC)cc23)c1 [BAY-293] |  | 9.059% and 19.7098% | 109.186% and 103.451% | 63.3306% and 79.153% | 45.2566% and 84.9935% | 50.5698% and 76.0204%
14 | O=C(O)CNC(=O)c1c(O)c2ccccc2n(Cc2ccccc2)c1=O | 94.9232% and 53.396% | 101.3% and 76.2347% | 105.314% and 91.1128% | 142.9% and 106.905% | 116.47% and 93.4683% | 109.318% and 89.1408%
15 | Cc1cnc(Nc2ccc(F)cc2Cl)nc1-c1c[nH]c(C(=O)N[C@H](CO)c2cccc(Cl)c2)c1 | 3.326% and 7.634% |  | 6.582% and 13.6138% |  | 28.1046% and 23.9721% | 23.785% and 21.0148%
16 | Cc1nc(N2CC[C@H](O)C2)ncc1-c1cc(C(F)(F)F)cc2[nH]ncc12 | 99.241% and 111.944% | 84.0147% and 88.1256% | 63.142% and 75.4977% | 55.6466% and 44.9799% | 102.375% and 86.1578% | 90.0065% and 80.6122%
17 | FC(F)c1nc2ccccc2n1-c1nc(N2CCOCC2)nc(N2CCOCC2)n1 [ZSTK-474] | 51.8719% and 106.162% | 61.9887% and 87.8149% | 70.4686% and 75.7987% | 41.1971% and 64.5183% | 72.4296% and 85.8537% | 82.8986% and 74.2713%
18 | CN([C@@H]1CCc2c(CC(=O)O)c3cc(S(C)(=O)=O)ccc3n2C1)S(=O)(=O)c1ccc(F)cc1 [CRTH2-negative-control] | 102.982% and 101.171% | 44.9133% and 103.761% | 103.344% and 126.626% | 95.2483% and 103.103% | 114.066% and 111.772% | 101.538% and 90.3061%
19 | Cc1ccc(-c2ccc3c(ccc4sc5c(c43)NC[C@@H](C)NC5=O)n2)cn1 | 131.751% and 124.635% | 132.52% and 124.216% | 114.172% and 105.969% | 99.6709% and 79.9055% | 108.383% and 98.1185% | 106.246% and 104.786%
20 | C[C@@H](c1cccc(C#N)c1)n1cc(Cl)cc(C(N)=O)c1=N.Cl | 94.9066% and 108.826% | 100.434% and 114.368% | 93.1286% and 91.7219% | 106.099% and 101.903% | 94.9994% and 100.946% | 88.3604% and 82.5969%
